Columns and labels:
[1] = biological target: T1, Acs1 (acetyl CoA synthetase) (Saccharomyces cerevisiae, UniProt Q01574); assay: hydroxylamine-coupled acetyl CoA synthetase assay (acethydroxamic acid, OD540); type: biochemical
T1 construct: purified S. cerevisiae acetyl CoA synthetase (Sigma, A1765)

[2] = biological target: T1, Acs1 (acetyl CoA synthetase); assay: hydroxylamine-coupled acetyl CoA synthetase assay; […] inhibition at […]; type: biochemical

T1 sequence (Q01574 whole entry): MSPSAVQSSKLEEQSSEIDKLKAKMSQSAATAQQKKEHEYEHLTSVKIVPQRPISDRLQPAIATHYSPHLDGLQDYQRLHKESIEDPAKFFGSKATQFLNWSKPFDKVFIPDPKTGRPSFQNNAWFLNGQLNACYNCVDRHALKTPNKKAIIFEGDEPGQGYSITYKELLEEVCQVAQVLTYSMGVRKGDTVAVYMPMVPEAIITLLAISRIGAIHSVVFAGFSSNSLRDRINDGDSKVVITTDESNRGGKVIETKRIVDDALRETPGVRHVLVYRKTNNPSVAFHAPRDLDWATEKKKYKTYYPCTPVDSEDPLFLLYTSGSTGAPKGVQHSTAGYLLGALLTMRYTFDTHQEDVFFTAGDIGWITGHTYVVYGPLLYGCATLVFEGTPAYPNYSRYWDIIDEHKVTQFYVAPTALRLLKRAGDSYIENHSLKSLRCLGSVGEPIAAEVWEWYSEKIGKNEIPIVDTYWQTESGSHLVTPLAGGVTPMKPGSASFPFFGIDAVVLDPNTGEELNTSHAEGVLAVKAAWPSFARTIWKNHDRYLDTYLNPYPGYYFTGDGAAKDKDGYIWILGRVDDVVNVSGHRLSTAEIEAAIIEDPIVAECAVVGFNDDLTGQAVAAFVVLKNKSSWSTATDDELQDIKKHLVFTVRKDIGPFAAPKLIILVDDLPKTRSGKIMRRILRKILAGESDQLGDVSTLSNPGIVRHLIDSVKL

SMILES: NCC(=O)Nc1ccc(-n2nc(C(F)(F)F)cc2-c2ccc3c(ccc4ccccc43)c2)cc1 [AR-12]
- IC50 [1]: ~18 µM

SMILES: CC(C)c1ccc(CC(=O)N2CCN(c3ccc(C#N)nn3)CC2)cc1 [PZ-2891]
- inhibition at 18.8 µM [2]: 32.7%

— PMC11266677, “Vitamin B5 metabolism is essential for vacuolar and mitochondrial functions and drug detoxification in fungi” (Communications Biology, 2024)
